Among the data in ChEMBL document CHEMBL1130910, “Design of novel porphyrin-binding peptides based on antibody CDR” (Bioorg Med Chem Lett, 1998) are Ka values, retold here.

Test [1] can be described thus: Evaluated for binding constant with antigen meso-tetrakis (4-carboxyphenyl)porphyrin (TCPP) at 20% methanol content.
Test [2] can be described thus: Evaluated for binding constant with antigen meso-tetrakis (4-carboxyphenyl)porphyrin (TCPP) at 35% methanol content.
Test [3] in a line: Evaluated for binding constant with antigen meso-tetrakis (4-carboxyphenyl)porphyrin (TCPP) at 5% methanol content.
Test [4] is described as follows: Evaluated for binding constant with antigen meso-tetrakis (4-carboxyphenyl)porphyrin (TCPP) at 0% methanol content.
Test [5] can be described thus: Evaluated for binding constant with antigen meso-tetrakis (4-carboxyphenyl)porphyrin (TCPP) at 15% methanol content.
The nature of test [6]: Evaluated for binding constant with antigen meso-tetrakis (4-carboxyphenyl)porphyrin (TCPP) at 30% methanol content.
Test [7] can be described thus: Evaluated for binding constant with antigen meso-tetrakis (4-carboxyphenyl)porphyrin (TCPP) at 40% methanol content.

For `CC[C@H](C)[C@H](NC(=O)[C@H](CCCN=C(N)N)NC(=O)CNC(=O)Cc1ccc2ccc3cccc4ccc1c2c34)C(=O)N[C@H]1CSSC[C@H](C(=O)N[C@H](C(=O)N[C@@H](CCCCN)C(=O)N[C@@H](Cc2ccc(O)cc2)C(N)=O)[C@H](C)O)NC(=O)CNC(=O)[C@H](CC(N)=O)NC(=O)[C@@H](C)NC(=O)[C@@H]2CCCN2C1=O`, the Ka in test [1] was found to be 140000 M⁻¹; in test [2], 15000 M⁻¹; in test [3] it was 420000 M⁻¹; in test [4], 680000 M⁻¹; in test [5], 260000 M⁻¹; in test [6] it was 70000 M⁻¹. Further, in test [7], the Ka is 9700 M⁻¹.
